Data: patent US9914760B2, “Methods of identifying, isolating and using odorant and aroma receptors” (Firmenich SA, priority 2013, dated 2018)

Assays:
Olfr665 = assay: cell-based calcium-flux assay, HEK293T with Gα15; parameters: species or system mouse; details: dose-response curves FIG. 6D-J
Description: (§1) The activity of candidate human indole and skatole malodors receptors OR52N2 (SEQ ID NO: 11 and SEQ ID NO: 12), OR11G2 (SEQ ID NO: 13 and SEQ ID NO: 14, OR5AC2 (SEQ ID NO: 75 and SEQ ID NO: 76), OR4C15 (SEQ ID NO: 79 and SEQ ID NO: 80), OR8S1 (SEQ ID NO: 83 and SEQ ID NO: 84), OR11H6 (SEQ ID NO: 15 and SEQ ID NO: 16) and OR11H4 (SEQ ID NO: 49 and SEQ ID NO: 50) and candidate mouse indole and skatole malodors receptors Olfr665 (SEQ ID NO: 9 and SEQ ID NO 10) and Olfr740 (SEQ ID NO: 1 and SEQ ID NO 2) were confirmed in cell-based calcium-flux assays (FIGS. 6A to 6J). Cells stably co-expressing Rho-tagged human OR52N2 (FIG. 6A, B) or OR11G2 (FIG. 6C) and Gα15 (SEQ ID NO: 25) were exposed to increasing concentrations of skatole or indole. FIG. 6B is a repeat experiment showing similar activity of OR52N2 with indole and skatole. Odorant-induced OR52N2 or OR11G2 activity was detected by measuring the maximum Calcium 5 dye (Molecular Devices) fluorescence change following odorant exposure. Activity is defined as the baseline corrected Relative Fluorescent Units (RFU) ratios normalized to the highest RFU in the experiment in FIG. 6A. […] A cell line lacking a receptor, for example hOR52N2, was used as a control for non-specific activity at high concentrations (‘Indole control’ and ‘Skatole control’). The human receptor OR52N2 (SEQ ID NO: 11 and SEQ ID NO: 12) was identified because of its sequence similarity to mouse Olfr665 (SEQ ID NO: 10), an indole/skatole receptor isolated from olfactory neurons responding to both indole and skatole. The human receptor OR11G2 (SEQ ID NO: 13 and SEQ ID NO: 14) was identified because of its sequence similarity to mouse Olfr740 (SEQ ID NO: 2), an indole/skatole receptor isolated from olfactory neurons responding to both indole and skatole. The receptors were modified with the Rho sequence and stably expressed in HEK 293T cells. Further examples show indole and skatole dose-response curves for human receptors OR5AC2, OR4C15, OR8S1, OR11H6, OR11H4 and mouse receptors Olfr665 and Olfr740 (FIG. 6D-J). The human receptor OR5AC2 (SEQ ID NO: 75 and SEQ ID NO: 76) was identified because of its sequence similarity to mouse Olfr207 (SEQ ID NO: 78), a receptor isolated from olfactory neurons responding to both indole and skatole. The human receptor OR4C15 (SEQ ID NO: 79 and SEQ ID NO: 80) was identified because of its sequence similarity to mouse Olfr211 (SEQ ID NO: 82), a receptor isolated from olfactory neurons responding to both indole and skatole. The human receptor OR8S1 (SEQ ID NO: 83 and SEQ ID NO: 84) was identified because of its sequence similarity to mouse Olfr257 (SEQ ID NO: 86), a receptor isolated from olfactory neurons responding to both indole and skatole. […]

Olfr740 = assay: cell-based calcium-flux assay, HEK293T with Gα15; parameters: species or system mouse; details: dose-response curves FIG. 6D-J
Description: as §1

Olfr736 = assay: in vitro receptor response to indole or skatole; assay type: cell-based, mouse; details: likely lack of cell surface expression
Description: (§2) In another aspect, human receptor OR52N2 (SEQ ID NO: 11 and SEQ ID NO: 12) was identified because of its sequence similarity to mouse Olfr665 (SEQ ID NO: 9 and SEQ ID NO: 10), an indole/skatole receptor isolated from olfactory neurons responding to both indole and skatole (Example 6). Human receptor OR11G2 (SEQ ID NO: 13 and SEQ ID NO: 14) was identified because of its sequence similarity to mouse Olfr740 (SEQ ID NO: 1 and SEQ ID NO: 2), an indole/skatole receptor isolated from olfactory neurons responding to both indole and skatole (Example 6). Human receptor OR5AC2 (SEQ ID NO: 75 and SEQ ID NO: 76) was identified because of its sequence similarity to mouse Olfr207 (SEQ ID NO: 77 and SEQ ID NO: 78), an indole/skatole receptor isolated from olfactory neurons responding to both indole and skatole (Example 6). Human receptor OR4C15 (SEQ ID NO: 79 and SEQ ID NO: 80) was identified because of its sequence similarity to mouse Olfr1211 (SEQ ID NO: 81 and SEQ ID NO: 82), an indole/skatole receptor isolated from olfactory neurons responding to both indole and skatole (Example 6). Human receptor OR8S1 (SEQ ID NO: 83 and SEQ ID NO: 84) was identified because of its sequence similarity to mouse Olfr257 (SEQ ID NO: 85 and SEQ ID NO: 86), an indole/skatole receptor isolated from olfactory neurons responding to both indole and skatole (Example 6). Mouse receptor Olfr665 (SEQ ID NO: 9 and SEQ ID NO: 10) was identified directly from NGS data from isolated olfactory neurons responding to both indole and skatole (Example 6). Mouse receptor Olfr740 (SEQ ID NO: 1 and SEQ ID NO: 2) was identified directly from NGS data from isolated olfactory neurons responding to both indole and skatole (Example 6).

Olfr747 = assay: in vitro receptor response to indole or skatole; assay type: cell-based, mouse; details: despite proper cell surface expression (immunostaining)
Description: as §2

Olfr748 = assay: in vitro receptor response to indole or skatole; assay type: cell-based, mouse; details: despite proper cell surface expression (immunostaining)
Description: as §2

Row | SMILES | receptor activation in vitro (Olfr665) | receptor activation in vitro (Olfr740) | receptor response (Olfr736) | receptor response (Olfr747) | receptor response (Olfr748)
1 | Cc1c[nH]c2ccccc12 [skatole, 3-methyl indole] | activated | activated | failed to respond | failed to respond | failed to respond
2 | c1ccc2[nH]ccc2c1 [indole] | activated | activated | failed to respond | failed to respond | failed to respond
